# Measured values published in patent US12631620B2, “Methods of generating organoids for high throughput screening of drugs” (Yissum Research Development Company of the Hebrew …, priority 2019, dated 2026).
# Values joined by “and” are separate entries in the source; they are usually repeats but may differ in a detail not shown here. Equal entries are not always repeated.
# Columns and labels:
# [1] = system: E6/E7^LOW human hepatocytes; experiment: E6/E7LOW human hepatocyte viability assessment (LIVE/DEAD Cytotoxicity kit); assay type: cell-based; details: 24 hours
# Experimental: E6/E7^LOW human hepatocyte were cultured with different concentrations of compounds dissolved in culture medium for 24 hours. Cell viability was subsequently determined using LIVE/DEAD Cytotoxicity kit (Molecular Probes, USA) according to manufacturer directions. Briefly, cultures were incubated for 30 minutes with 2 μM calcein AM and 3 μM ethidium homodimer-1. Live cells were positive for green fluorescence due to hydrolysis of the acetoxymethyl ester group by intracellular esterases. Dead cells were positive for red fluorescence due to ethidium homodimer-1 binding intracellular DNA, possible in […]. Cellular viability was expressed as live over dead ratio and normalized based on negative (DMSO/DDW/EtOH) and positive (0.1% Saponin) controls. Fluorescence micrographs were analyzed for total fluorescence using ImageJ for 12 repeats for each sample. TC50 and TC20 concentrations were calculated using MATLAB® Curve Fitting Tool. Results were fitted to a sigmoidal curve (Prentice, 1976; Wenner et al., 2011). Error bars indicate ±SE.
# [2] = system: E6/E7^LOW human hepatocytes; experiment: Steatosis and phospholipidosis, HCS LipidTOX detection kit, hepatocyte cultures; assay type: cell-based
# Experimental: Quantification of Apoptotic index was performed using DeadEnd™ fluorometric TUNEL System (Promega) according to manufacturer directions. Briefly, cells were treated with TC20 concentrations of compounds dissolved in culture medium for 24 hours, and subsequently fixed in 4% Paraformaldehyde (PFA). Cells were then permeabilized and exposed to fluorescein-12-dUTP and terminal deoxynucleotidyl transferase (TdT). The reaction was subsequently stopped and the cells counterstained with 1 μg/mL Hoechst 33258. Apoptotic cells were positive for green fluorescence in the nucleus. Percentage apoptosis was defined as the number of TUNEL positive nuclei normalized to Hoechst 33258 positive nuclei. Quantification of Steatosis was performed using HCS LipidTOX™ Phospholipidosis and Steatosis Detection Kit (ThermoFisher). Briefly, differentiated cells were incubated with different concentrations of compounds dissolved in culture medium and 1× Phospholipidosis Detection Reagent for 48 hours, subsequently fixed in 4% PFA. Cells were then stained with 1× LipidTOX™ for 20 minutes and counterstained with 1 μg/mL Hoechst 33258. Staining intensity was normalized to number of Hoechst 33258 positive nuclei. Quantification of Bile Secretion was performed using 5(6)-carboxy-2′,7′-dichlorofluorescein diacetate (CDFDA) staining. Briefly, differentiated cells were incubated with different concentrations of compounds dissolved in culture medium for 24 hours. Cells were then treated with 10 μg/mL CDFDA and 1 μg/mL Hoechst 33342 for 30 minutes. Incubation medium was removed and cultures washed with ice-cold PBS containing calcium and magnesium. Staining intensity was normalized to number of Hoechst 33342 positive nuclei. Analysis excluded Intracellular CDFDA staining based on intensity and phase images. All quantifications were made in comparison to cells treated with melatonin as negative control.
# Quantification of Apoptotic index was performed using DeadEnd™ fluorometric TUNEL System (Promega) according to manufacturer directions. Briefly, cells were treated with TC20 concentrations of compounds dissolved in culture medium for 24 hours, and subsequently fixed in 4% Paraformaldehyde (PFA). Cell were then permeabilized and exposed to fluorescein-12-dUTP and terminal deoxynucleotidyl transferase (TdT). The reaction was subsequently stopped and the cells counterstained with 1 μg/mL Hoechst 33258. Apoptotic cells were positive for green fluorescence in the nucleus. […] Quantification of Steatosis was performed using HCS LipidTOX™ Phospholipidosis and Steatosis Detection Kit (ThermoFisher). […] Quantification of Bile Secretion was performed using 5(6)-carboxy-2′,7′-dichlorofluorescein diacetate (CDFDA) staining. […] All quantifications were made in comparison to cells treated with melatonin as negative control.
# E6/E7^LOW hepatocytes = system: E6/E7^LOW hepatocytes
# Experimental: According to some embodiments of the invention there is a sensor-integrated liver on chip array in which oxygen is monitored using two-frequency phase modulation of tissue-embedded phosphorescent microprobes, while glucose, lactate and temperature are measured in real time using microfluidic electrochemical sensors. Such a microphysiological platform permits the calculation of dynamic changes in metabolic fluxes around central carbon metabolism, producing a unique metabolic fingerprint of the liver's response to stimuli.
# HepG2/C3A organoids = experiment: Neutral lipid and phospholipid staining of HepG2/C3A organoids on chip; assay type: cell-based, human; details: p<0.001, n=9
# [3] = patients on therapy; cited from earlier work
# [4] = system: E6/E7^LOW human hepatocytes; experiment: Bile secretion, CDFDA staining; assay type: cell-based; details: p<0.05, n=4
# Experimental: Quantification of Apoptotic index was performed using DeadEnd™ fluorometric TUNEL System (Promega) according to manufacturer directions. Briefly, cells were treated with TC20 concentrations of compounds dissolved in culture medium for 24 hours, and subsequently fixed in 4% Paraformaldehyde (PFA). Cells were then permeabilized and exposed to fluorescein-12-dUTP and terminal deoxynucleotidyl transferase (TdT). The reaction was subsequently stopped and the cells counterstained with 1 μg/mL Hoechst 33258. Apoptotic cells were positive for green fluorescence in the nucleus. Percentage apoptosis was defined as the number of TUNEL positive nuclei normalized to Hoechst 33258 positive nuclei. Quantification of Steatosis was performed using HCS LipidTOX™ Phospholipidosis and Steatosis Detection Kit (ThermoFisher). […] Quantification of Bile Secretion was performed using 5(6)-carboxy-2′,7′-dichlorofluorescein diacetate (CDFDA) staining. […] All quantifications were made in comparison to cells treated with melatonin as negative control.
# Quantification of Apoptotic index was performed using DeadEnd™ fluorometric TUNEL System (Promega) according to manufacturer directions. […] Apoptotic cells were positive for green fluorescence in the nucleus. […] Quantification of Steatosis was performed using HCS LipidTOX™ Phospholipidosis and Steatosis Detection Kit (ThermoFisher). […]
# [5] = system: E6/E7^LOW human hepatocytes; experiment: Apoptotic index, DeadEnd fluorometric TUNEL System; assay type: cell-based; details: 24 hours exposure
compound,measurement,setting,value
Cc1cn([C@H]2C=C[C@@H](CO)O2)c(=O)[nH]c1=O [Stavudine],TC50,[1],800 µM and 800 ± 60 µM
same,phospholipidosis,[2],not
same,neutral lipids,"[2]; p<0.001, n=4",strong and significant increase
same,ATP production,E6/E7^LOW hepatocytes,relatively unchanged
same,direct mitochondrial damage,E6/E7^LOW hepatocytes,no indication of direct mitochondrial damage
same,"metabolic fluxes (lipogenesis, glycolysis)",E6/E7^LOW hepatocytes,transient increase in lipogenesis followed by global suppression of both glycolysis and lipogenesis
same,increase in lipogenesis,"E6/E7^LOW hepatocytes; flux balance analysis, below threshold of cellular damage, Valproate sustained, Stavudine transient",5%
same,time to onset of slow progressive damage post-exposure,E6/E7^LOW hepatocytes; human,15 to 20 h
same,increase in the amount of intracellular lipids,HepG2/C3A organoids,3 fold
same,patients with elevated liver enzymes,[3],30%
same,bile secretion,[4],mild inhibition
same,apoptosis,[5],no evidence of apoptosis
